pIC50: −log10 of the molar value.
Target: TRPA1 (Homo sapiens, UniProt O75762)
Assay: Determination of TRPA1 activity in vitro (TRPA1 antagonism in vitro)
Type: cell-based
Details: procedure of Wei et al., Anesthesiology 111 (2009) 147-154

Chain of TRPA1 (O75762 whole entry): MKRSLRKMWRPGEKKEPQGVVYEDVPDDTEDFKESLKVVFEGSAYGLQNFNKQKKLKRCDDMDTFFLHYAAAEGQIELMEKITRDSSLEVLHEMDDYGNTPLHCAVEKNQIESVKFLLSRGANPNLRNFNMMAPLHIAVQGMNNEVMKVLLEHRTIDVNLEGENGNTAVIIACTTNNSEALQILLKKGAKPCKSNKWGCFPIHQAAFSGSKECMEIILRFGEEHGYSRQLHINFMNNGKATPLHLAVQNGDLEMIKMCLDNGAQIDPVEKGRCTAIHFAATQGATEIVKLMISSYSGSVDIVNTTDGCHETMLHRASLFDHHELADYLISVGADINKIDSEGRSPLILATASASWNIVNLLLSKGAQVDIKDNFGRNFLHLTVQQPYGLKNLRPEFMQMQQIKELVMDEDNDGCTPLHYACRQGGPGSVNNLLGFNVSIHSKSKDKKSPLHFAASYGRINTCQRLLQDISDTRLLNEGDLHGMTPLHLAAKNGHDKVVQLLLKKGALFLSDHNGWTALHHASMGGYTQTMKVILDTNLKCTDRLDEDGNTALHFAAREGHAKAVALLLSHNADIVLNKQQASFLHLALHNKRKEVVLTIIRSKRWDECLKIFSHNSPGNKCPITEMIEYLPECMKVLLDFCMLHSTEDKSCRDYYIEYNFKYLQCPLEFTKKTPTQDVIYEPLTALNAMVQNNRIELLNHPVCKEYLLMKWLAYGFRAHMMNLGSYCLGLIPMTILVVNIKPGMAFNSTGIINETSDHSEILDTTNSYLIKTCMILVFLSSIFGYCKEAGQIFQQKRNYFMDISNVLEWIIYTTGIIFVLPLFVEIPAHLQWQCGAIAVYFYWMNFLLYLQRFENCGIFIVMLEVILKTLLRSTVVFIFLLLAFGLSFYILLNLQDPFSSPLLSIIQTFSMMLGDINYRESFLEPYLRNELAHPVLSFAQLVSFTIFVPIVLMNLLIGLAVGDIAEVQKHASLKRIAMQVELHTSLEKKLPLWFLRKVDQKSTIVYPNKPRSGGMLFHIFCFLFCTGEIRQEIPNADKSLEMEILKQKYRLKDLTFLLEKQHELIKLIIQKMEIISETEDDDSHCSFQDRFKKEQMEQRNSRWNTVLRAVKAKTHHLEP

| Structure (SMILES) | pIC50 |
| --- | --- |
| C#CC(C)(C)NC(=O)c1cc(OC)ccc1NCCCC(F)(F)F [Example 96, 5-Methoxy-N-(2-methylbut-3-yn-2-yl)-2-(4,4,4-trifluorobutylamino)-benzamide] | 5.43 |
| C#CC(C)(C)NC(=O)c1cccnc1NCc1cccc(F)c1 [Example 98, 2-(3-Fluorobenzylamino)-N-(2-methylbut-3-yn-2-yl)nicotinamide] | 5.28 |
| C#CC(C)(C)NC(=O)c1cccnc1NC(C)(C)C [Example 101, 2-(tert-Butylamino)-N-(2-methylbut-3-yn-2-yl)nicotinamide] | 4.92 |
| C#CC(CC)(CC)NC(=O)c1cc(F)ccc1NCC [Example 103, 2-(Ethylamino)-N-(3-ethylpent-1-yn-3-yl)-5-fluorobenzamide] | 5.74 |
| C#CC(C)(C)NC(=O)c1cc(F)ccc1NCCC(F)(F)F [Example 104, 5-Fluoro-N-(2-methylbut-3-yn-2-yl)-2-(3,3,3-trifluoropropylamino)benzamide] | 5.77 |
| C#CC(C)(C)NC(=O)c1ccc(C(F)(F)F)nc1NCC(C)C [Example 105] | 6.15 |
| C#CC(C)(C)NC(=O)c1ccc(C(F)(F)F)nc1NC(C)C [Example 106, 2-(Isopropylamino)-N-(2-methylbut-3-yn-2-yl)-6-(trifluoromethyl)-nicotinamide] | 5.89 |
| C#CC(C)(C)NC(=O)c1cnc(C(F)(F)F)nc1NC(C)(C)C [Example 108, 4-(tert-Butylamino)-N-(2-methylbut-3-yn-2-yl)-2-(trifluoromethyl)pyrimidine-5-carboxamide] | 5.30 |
| C#CC(C)(C)NC(=O)c1cnc(C(F)(F)F)nc1NC(C)(C)CC [Example 109, N-(2-Methylbut-3-yn-2-yl)-4-(tert-pentylamino)-2-(trifluoromethyl)-pyrimidine-5-carboxamide] | 5.29 |
| C#CC(C)(C)NC(=O)c1cnc(C(F)(F)F)nc1NC(C)C [Example 110, 4-(Isopropylamino)-N-(2-methylbut-3-yn-2-yl)-2-(trifluoromethyl)-pyrimidine-5-carboxamide] | 4.92 |
| C#CC(C)(C)NC(=O)c1ccc(C(F)(F)F)nc1NC(C)(C)C [Example 111, 2-(tert-Butylamino)-N-(2-methylbut-3-yn-2-yl)-6-(trifluoromethyl)-nicotinamide] | 5.62 |
| C#CC(C)(C)NC(=O)c1ccc(C(F)(F)F)nc1NC1CCOCC1 [Example 115, N-(2-Methylbut-3-yn-2-yl)-2-(tetrahydro-2H-pyran-4-ylamino)-6-(trifluoromethyl)nicotinamide] | 5.32 |
| C#CC(C)(C)NC(=O)c1ccc(C(F)(F)F)nc1NCC1CCOCC1 [Example 116, N-(2-Methylbut-3-yn-2-yl)-2-((tetrahydro-2H-pyran-4-yl)methyl-amino)-6-(trifluoromethyl)nicotinamide] | 5.80 |
| C#CC(C)(C)NC(=O)c1ccc(C(F)(F)F)nc1NC1CC1 [Example 117, 2-(Cyclopropylamino)-N-(2-methylbut-3-yn-2-yl)-6-(trifluoromethyl)-nicotinamide] | 5.64 |
| C#CC(C)(C)NC(=O)c1cccc2c(C)c(C)[nH]c12 [Example 118, 2,3-Dimethyl-N-(2-methylbut-3-yn-2-yl)-1H-indole-7-carboxamide] | 4.89 |
| C#CC(CC)(CC)NC(=O)c1cccc2cc[nH]c12 [Example 119, N-(3-Ethylpent-1-yn-3-yl)-1H-indole-7-carboxamide] | 4.73 |
| C#CC(CC)(CC)NC(=O)c1cccc2c1NCCC2 [Example 120, N-(3-Ethylpent-1-yn-3-yl)-1,2,3,4-tetrahydroquinoline-8-carboxamide] | 5.08 |

| Structure (SMILES) | pIC50 |
| --- | --- |
| C#CC(C)(C)NC(=O)c1cccnc1Nc1ccccc1F [Example 122, 2-(2-Fluorophenylamino)-N-(2-methylbut-3-yn-2-yl)nicotinamide] | 5.32 |
| C#CC(C)(C)NC(=O)c1cccnc1NC1CCC(F)(F)CC1 [Example 123, 2-(4,4-Difluorocyclohexylamino)-N-(2-methylbut-3-yn-2-yl)nicotinamide] | 5.42 |
| C#CC(C)(C)NC(=O)c1cc(Br)ccc1NCCC [Example 124, 5-Bromo-NV-(2-methylbut-3-yn-2-yl)-2-(propylamino)benzamide] | 6.30 |
| C#CC(C)(C)NC(=O)c1cccnc1NC(C)(C)C(F)(F)F [Example 125, N-(2-Methylbut-3-yn-2-yl)-2-(1,1,1-trifluoro-2-methylpropan-2-ylamino)nicotinamide] | 5.34 |
| C#CC(C)(C)NC(=O)c1cscc1NCCC [Example 126, N-(2-Methylbut-3-yn-2-yl)-4-(propylamino)thiophene-3-carboxamide] | 5.10 |
| C#CC(C)(C)NC(=O)c1cc(C(F)(F)F)cnc1NC(C)(C)C [Example 128, 2-(tert-Butylamino)-N-(2-methylbut-3-yn-2-yl)-5-(trifluoromethyl)-nicotinamide] | 5.96 |
| C#CC(C)(C)NC(=O)c1cc(Cl)cnc1Nc1ccccc1 [Example 129, 5-Chloro-N-(2-methylbut-3-yn-2-yl)-2-(phenylamino)nicotinamide] | 6.15 |
| C#CC(C)(C)NC(=O)c1cc(F)cc(F)c1NCCC(F)F [Example 135, 2-(3,3-Difluoropropylamino)-3,5-difluoro-N-(2-methylbut-3-yn-2-yl)benzamide] | 5.30 |
| C#CC(C)(C)NC(=O)c1sccc1NCC(C)C [Example 136, 3-(Isobutylamino)-N-(2-methylbut-3-yn-2-yl)thiophene-2-carboxamide] | 5.06 |
| C#CC(C)(C)NC(=O)c1cc(F)cnc1Nc1cc(C)ns1 [Example 137, 5-Fluoro-N-(2-methylbut-3-yn-2-yl)-2-(3-methylisothiazol-5-ylamino)nicotinamide] | 5.00 |
| C#CC(C)(C)NC(=O)c1cc(Cl)cnc1Nc1cccnc1 [Example 138, 5-Chloro-N-(2-methylbut-3-yn-2-yl)-2-(pyridin-3-ylamino)nicotinamide] | 4.92 |
| C#CC(C)(C)NC(=O)c1cc(Cl)cnc1NC1CC(F)(F)C1 [Example 139, 5-Chloro-2-(3,3-difluorocyclobutylamino)-N-(2-methylbut-3-yn-2-yl)nicotinamide] | 6.52 |
| C#CC(C)(C)NC(=O)c1cc(F)cnc1Nc1ccc(C2CCCC2)nc1 [Example 140, 2-(6-Cyclopentylpyridin-3-ylamino)-5-fluoro-N-(2-methylbut-3-yn-2-yl)nicotinamide] | 5.26 |
| C#CC(C)(C)NC(=O)c1cccnc1NCCc1ccccc1 [Example 142, N-(2-Methylbut-3-yn-2-yl)-2-(phenethylamino)nicotinamide] | 5.24 |
| C#CC(C)(C)NC(=O)c1cccnc1NCCCc1ccccc1 [Example 143, N-(2-Methylbut-3-yn-2-yl)-2-(3-phenylpropylamino)nicotinamide] | 5.42 |
| C#CC(C)(C)NC(=O)c1cc(F)cnc1NCCOc1ccc(F)cc1 [Example 145, 5-Fluoro-2-(2-(4-fluorophenoxy)ethylamino)-N-(2-methylbut-3-yn-2-yl)nicotinamide] | 5.48 |

Further molecules by rising pIC50, results first:

| pIC50 | Structure (SMILES) |
| --- | --- |
| 4.85 | C#CC(C)(C)NC(=O)c1cccnc1NCc1cccc(OC)c1 [Example 97, 2-(3-Methoxybenzylamino)-N-(2-methylbut-3-yn-2-yl)nicotinamide] |
| 4.86 | C#CC(C)(C)NC(=O)c1cncnc1NCC(F)(F)C(F)(F)F [Example 132, N-(2-Methylbut-3-yn-2-yl)-4-(2,2,3,3,3-pentafluoropropylamino)-pyrimidine-5-carboxamide] |
| 5.14 | C#CC(C)(C)NC(=O)c1ccc(Cl)nc1NCC [Example 113, 6-Chloro-2-(ethylamino)-N-(2-methylbut-3-yn-2-yl)nicotinamide] |
| 5.18 | C#CC(C)(C)NC(=O)c1cccnc1NCCCC [Example 100, 2-(Butylamino)-N-(2-methylbut-3-yn-2-yl)nicotinamide] |
| 5.23 | C#CC(C)(C)NC(=O)c1cccnc1NC1CC(F)(F)C1 [Example 133, 2-(3,3-Difluorocyclobutylamino)-N-(2-methylbut-3-yn-2-yl)nicotinamide] |
| 5.36 | C#CC(C)(C)NC(=O)c1cccnc1Nc1ccccc1 [Example 127, N-(2-Methylbut-3-yn-2-yl)-2-(phenylamino)nicotinamide] |
| 5.37 | C#CC(C)(C)NC(=O)c1cc(F)c(N2CCOCC2)nc1NC(C)C [Example 114, 5-Fluoro-2-(isopropylamino)-N-(2-methylbut-3-yn-2-yl)-6-morpholinonicotinamide] |
| 5.37 | C#CC(C)(C)NC(=O)c1ccncc1Nc1ccc(Cl)cc1 [Example 134, 3-((4-Chlorophenyl)amino)-N-(2-methylbut-3-yn-2-yl)isonicotinamide] |
| 5.43 | C#CC(C)(C)NC(=O)c1ccc(C(F)(F)F)nc1NCC [Example 107, 2-(Ethylamino)-N-(2-methylbut-3-yn-2-yl)-6-(trifluoromethyl)-nicotinamide] |
| 5.47 | C#CC(C)(C)NC(=O)c1ccc(Cl)nc1NC(C)C [Example 112, 6-Chloro-2-(isopropylamino)-N-(2-methylbut-3-yn-2-yl)nicotinamide] |
| 5.59 | C#CC(C)(C)NC(=O)c1cc(F)cnc1NCCCOc1ccc(F)cc1 [Example 144, 5-Fluoro-2-(3-(4-fluorophenoxy)propylamino)-N-(2-methylbut-3-yn-2-yl)nicotinamide] |
| 5.68 | C#CC(C)(C)NC(=O)c1ccsc1NCCCC [Example 130, 2-(Butylamino)-N-(2-methylbut-3-yn-2-yl)thiophene-3-carboxamide] |
| 5.85 | C#CC(C)(C)NC(=O)c1cccnc1Nc1ccc(F)cc1 [Example 131, 2-(4-Fluorophenylamino)-N-(2-methylbut-3-yn-2-yl)nicotinamide] |
| 5.96 | C#CC(C)(C)NC(=O)c1cccnc1Nc1cccc(F)c1 [Example 121, 2-(3-Fluorophenylamino)-N-(2-methylbut-3-yn-2-yl)nicotinamide] |
| 6.52 | C#CC(C)(CC)NC(=O)c1cc(F)ccc1NCCCC (stereo not shown) [Example 102, 2-(Butylamino)-5-fluoro-N-(3-methylpent-1-yn-3-yl)benzamide] |
| 6.52 | C#CC(C)(C)NC(=O)c1cc(C(F)(F)F)cnc1NC1CC(F)(F)C1 [Example 141, 2-(3,3-Difluorocyclobutylamino)-N-(2-methylbut-3-yn-2-yl)-5-(trifluoromethyl)nicotinamide] |

Reference: patent US9533952B2, “N-prop-2-ynyl carboxamide derivatives and their use as TRPA1 antagonists” (Orion Corporation, priority 2012, dated 2017)
